# Patent US4012385A, “Antibacterial quinoxaline 1,4-dioxides” (Pfizer Inc., priority 1975, dated 1977)
# Experiments:
# Escherichia coli = assay: in vitro antibacterial activity (MIC), two-fold serial dilution in Brain-Heart Infusion broth; conditions: read-out: MIC Esch coli
# Description: (§1) The broth is inoculated with bacteria, and with the quinoxaline 1,4-dioxide or 1,3 -dihydrofuro[3,4-b]quinoxaline 4,9-dioxide, and then it is incubated overnight at 37 ° C., under anaerobic conditions. On the next day, the test is read visually. The minimum inhibitory concentration (MIC) of test compound is the lowest concentration which prevents turbidity, i.e. which prevents growth of the microorganism.
# Streptococcus pyogenes = assay: as above; conditions: read-out: MIC Strep pyogenes
# Description: as §1
# Salmonella Choleraesuis [1] = conditions: mice, 25 mg./kg., multiple dosing, percentage of animals which survive
# Description: The test compound is administered using a multiple dosing regimen at a dosage of 25 mg./kg., and using either the oral (PO) or the subcutaneous (SC) route. The inoculum of bacteria varies from one to about ten times the amount needed to kill 100% of the mice, under conditions of the test. At the end of the test, the activity of a compound is assessed by counting the number of survivors among the treated animals and expressing the activity of a compound as the percentage of animals which survive.
# Salmonella Choleraesuis [2] = assay: in vitro antibacterial activity (MIC), two-fold serial dilution in Brain-Heart Infusion broth; conditions: Salmonella enterica, read-out: MIC Sal. Choleraesuis
# Description: as §1
Compound,MIC (Escherichia coli) [µg/mL],MIC (Streptococcus pyogenes) [µg/mL],"Percentage protection vs. Sal. Choleraesuis, PO (Salmonella Choleraesuis [1]) [%]","Percentage protection vs. Sal. Choleraesuis, SC (Salmonella Choleraesuis [1]) [%]",MIC (Salmonella Choleraesuis [2]) [µg/mL]
"COC1(c2ccccc2)OCc2c1[n+]([O-])c1ccccc1[n+]2[O-] (stereo not shown) [1-Methoxy-1-phenyl-1,3-dihydrofuro[3,4-b]quinoxaline 4,9-Dioxide]",25,25,30,30,100
"CC(=O)OCc1c(C(=O)c2ccccc2)[n+]([O-])c2ccccc2[n+]1[O-] [2-Benzoyl-3-acetoxymethylquinoxaline 1,4-Dioxide]",12.5,12.5,50,10,50
"CC(=O)SCc1c(C(=O)c2ccccc2)[n+]([O-])c2ccccc2[n+]1[O-] [2-Benzoyl-3-acetylthiomethylquinoxaline 1,4-Dioxide]",> 200,> 200,30,20,> 200
"O=C(c1ccccc1)c1c(CO)[n+]([O-])c2ccccc2[n+]1[O-] [2-Benzoyl-3-hydroxymethylquinoxaline 1,4-Dioxide]",1.56,0.78,80,60,6.25
"CS(=O)(=O)Cc1c(C(=O)c2ccccc2)[n+]([O-])c2ccccc2[n+]1[O-] [2-Benzoyl-3-methylsulfonylmethylquinoxaline 1,4-Dioxide]",25,12.5,60,30,25
